Results: patent publication US20250302798A1, “STING INHIBITORS AND USE THEREOF” (CARMEL HAIFA UNIVERSITY ECONOMIC CORPORATION LTD., priority 2022, published 2025)
Entries after “also recorded” stand apart in the source; their conditions may differ.

Columns and labels:
STING [1] = biological target: T1, STING (Homo sapiens, UniProt Q86WV6); assay: Cytokine expression and STING signaling in PMA-differentiated U937 macrophages; format: cell-based; details: 50 nM, compared with c-GAMP 1 μg/ml
T1 construct: endogenous in cells; host or cells: U937 cells differentiated with PMA
T1 sequence (Q86WV6 whole entry H232R): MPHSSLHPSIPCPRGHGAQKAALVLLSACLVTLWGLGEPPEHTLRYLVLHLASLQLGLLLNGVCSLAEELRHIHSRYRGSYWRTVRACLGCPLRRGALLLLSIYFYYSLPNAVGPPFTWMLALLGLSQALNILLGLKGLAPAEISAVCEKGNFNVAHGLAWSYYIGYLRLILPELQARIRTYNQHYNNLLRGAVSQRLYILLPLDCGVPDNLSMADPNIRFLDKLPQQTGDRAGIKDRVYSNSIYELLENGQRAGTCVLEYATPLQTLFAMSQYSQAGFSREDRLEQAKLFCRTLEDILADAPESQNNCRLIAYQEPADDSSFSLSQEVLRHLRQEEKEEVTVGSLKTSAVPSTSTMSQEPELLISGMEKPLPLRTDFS
Method: FIGS. 8A-8G include graphs and an image showing that compound 2.1 activates cytokine expression and STING signaling in human macrophages in a similar fashion to cGAMP. Human monocytes of the U937 cell line were treated with phorbol 12-myristate 13-acetate (PMA; 50 ng/ml) for 48 hours. Then, differentiated macrophages (4×10^6 cells) were treated with c-di-GMP (10 μg/ml), c-GAMP (1 μg/ml), compound 2.1 (50 nM) or vehicle for 8 (8A-8F) or 2 (8G) hours. Cells (8A-8D, and 8G) or culture supernatants (8E-8F), were collected and analyzed by RT-PCR, ELISA, and immunoblotting for: TNFα (8A), IL-6 (8B), IL-10 (8C), IFN-β (8D), IL-10 (8E), and TNFα (8F), or STING-IFN-β-RGS2 pathway proteins and actin as a loading control (8G). Results are representative mean±SEM from 3 experiments. One-way ANOVA, and Tukey HSD test ** P≤0.01, P<0.001, **** P≤0.0001.

STING [2] = biological target: T2, STING (Mus musculus, UniProt Q3TBT3); assay: Cytokine secretion (ELISA) from DMXAA-activated splenocytes; format: cell-based, C57BL/6 mice; parameters: Splenocytes were recovered from C57BL/6 WT female mice; endogenous in cells; host or cells: primary splenocytes of C57BL/6 mice
T2 sequence (Q3TBT3 1-378): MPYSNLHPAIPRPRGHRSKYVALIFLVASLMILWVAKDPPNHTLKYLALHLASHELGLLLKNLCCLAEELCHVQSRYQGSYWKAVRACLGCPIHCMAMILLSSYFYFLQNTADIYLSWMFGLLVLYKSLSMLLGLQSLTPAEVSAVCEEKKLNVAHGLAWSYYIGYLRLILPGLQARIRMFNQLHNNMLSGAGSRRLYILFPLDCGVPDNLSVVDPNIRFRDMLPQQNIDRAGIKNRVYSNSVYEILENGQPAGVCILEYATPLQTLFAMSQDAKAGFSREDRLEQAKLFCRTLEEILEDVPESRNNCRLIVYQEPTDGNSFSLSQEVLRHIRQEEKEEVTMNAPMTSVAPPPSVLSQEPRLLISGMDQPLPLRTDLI
Method: FIGS. 1A-1B include bar graphs showing that Cluster 1 and 9 inhibit tumor necrosis factor alpha (TNFα) while only cluster 1 promotes IL-10 secretion from resting splenocytes activated by the selective STING agonist DMXAA. Splenocytes were recovered from C57BL/6 WT or STING^−/− female mice and were incubated (1×10^6 cells in 0.5 mL of culture media) overnight with a premade mixture of the individual compounds in each cluster (5-500 nM) or vehicle, and DMXAA (10 μM). Next, culture supernatants were collected and TNFα(1A) or IL-10 (1B) levels were determined by standard enzyme-linked immunosorbent assay ELISA (Biolegend).
FIGS. 2A-2D include graphs showing that compounds 5.9 and 7.9 inhibit TNFα and IL-10 secretion from DMXAA-activated splenocytes. Splenocytes were recovered from C57BL/6 WT female mice and incubated (1×10^6 cells in 0.5 mL of culture media) overnight with the individual compounds from cluster 9 (50-5,000 nM) or vehicle and DMXAA (5-10 μM; 2A-2B) or at 5,000 nM without DMXAA (2C-2D). Next, culture supernatants were collected and TNFα (2A, and 2C) or IL-10 (2B, and 2D) levels were determined by standard ELISA. In 2A-2B, black horizontal line indicates secretion level from vehicle-treated cells.
FIGS. 3A-3H include graphs and an image showing that compounds 2.1, 4.1, and 6.1 inhibit TNFα but promote IL-10 and IFN-beta secretion from DMXAA-activated splenocytes. Splenocytes were recovered from C57BL/6 WT female mice and incubated (1×10^6 cells in 0.5 mL of culture media) overnight with the individual compounds from cluster 1 (50-5,000 nM) or vehicle and DMXAA (10 μM; 3A, 3C, and 3E) or at 5,000 nM without DMXAA (3B, 3D, and 3F). Next, culture supernatants were collected and TNFα (3A-3B), IL-10 (3C-3D), or IFN-beta (3E-3F) levels were determined by standard ELISA. In 3A, 3C, and 3E, black horizontal line indicates secretion level from vehicle-treated cells. (3G-3H) Biased STING agonists (BiSTs) enhance DMXAA-induced STING signaling. Splenocytes were treated with 25 μg/ml DMXAA and 50 nM of compound 2.1 for 1-4 hr (3G). Then, the cells were analyzed by immunoblotting for phosphorylated STING, TBK-1, IRF3, and NF-kB, or their unphosphorylated controls, or actin as a loading control. Densitometry analysis for phosphorylated STING (p-STING) and STING proteins (3H) is also shown. Results are representative (3G) or mean±SEM (3H) from 3 repeats. One-way ANOVA, and Tukey HSD test *P<0.05.
Splenocytes were isolated from the spleens of unchallenged C57BL/6 WT or STING-KO mice by meshing against a grid. Peritoneal macrophages were isolated from mice undergoing peritonitis for 66 hr by washing with 5 ml PBS. The cellular exudate was stained with phycoerythrin (PE)-conjugated anti-F4/80 antibodies (bioLegend, CA, USA) and macrophages were isolated using magnetic beads (STEMCELL Technologies Inc, Vancouver, Canada). Isolated splenocytes or macrophages (0.5-1×10^6 cells per well) were incubated with 50-5,000 nM of individual substances or pooled clusters thereof. Then, the cells were treated with vehicle or 5-10 μM DMXAA (Cayman Chemical, MI, USA) to activate STING. After 24 hr, culture supernatants were collected and evaluated for levels of: TNFα, IFN-β and/or IL-10 using, standard ELISA (BioLegend, CA, USA).
To test which cluster(s) included compounds that modulate STING-mediated cytokine production, wild-type (WT) or STING knockout (−/−) splenocytes were incubated with the selective murine STING agonist DMXAA alone or with 5-500 nM of the pooled individual compounds in each cluster as indicated.
Next, the individual compounds in clusters 1 and 9 were tested at 50-5,000 nM. The first experiment was performed in resting splenocytes as detailed above.

[3] = individual compounds 50-5,000 nM + DMXAA 5-10 μM, overnight

c1ccc(CSc2nnc(CCCCCCCCc3nnc(SCc4ccccc4)o3)o2)cc1 [Compound 2.1, 2-(benzylsulfanyl)-5-{8-[5-(benzylsulfanyl)-1,3,4-oxadiazol-2-yl]octyl}-1,3,4-oxadiazole]
STING signaling (STING-IFN-β-RGS2 pathway proteins) (STING [1]; 2 hours): activates | Cytokine expression (TNFα, IL-6, IL-10, IFN-β) (STING [1]; 8 hours): activates | STING inhibition (ranking) (STING [2]; at 5,000 nM, resting splenocytes): Best STING Inhibitors | IFN-beta secretion (STING [2]; individual compounds 50-5,000 nM + DMXAA 10 μM, overnight): most potent inducer; also recorded: promote | IL-10 secretion (STING [2]; [3]): most potent inducer; also recorded: promote | TNFα secretion (STING [2]; [3]): doing so at lower concentrations; also recorded: inhibit | Mode of action on STING (overall) (STING [2]; summary over various cell types, DMXAA stimulation): biased agonists
